# Results from US12098176B2, “Keratin BD-4, preparation method, and pharmaceutical composition and use thereof” (Institute of Materia Medica, Chinese Academy of Medical …, priority 2019, dated 2024).
# Structures can show the parent of a compound that is named as a salt.
# System: phenol red excretion in mice
# Test: Expectorant test, phenol red excretion method in mice
# Type: in vivo, mouse
# Description: Experimental example 5 The pharmacodynamic test of protein BD-4 (Example 4 protein) on the expectorant of phenol red excretion method in mice.
# • Solvent control group; • Mucosultan 30 mg/kg group; • Protein BD-4, 20 mg/kg group, 50 mg/kg group. Method: Model Preparation and Administration:
# The animals were fasted and watered 16 hours before the experiment. Orally administered Mucosultan and different doses of protein BD-4 (administration volume 10 ml/kg) in groups, and the solvent control group was given the same volume of distilled water. One hour later, 2.5% phenol red solution was injected intraperitoneally, Kill the mouse by removing the neck after 30 minutes. Take the trachea from below the thyroid cartilage to the branch of the trachea. Put the trachea into 3 ml 5% NaHCO3 solution and let it stand for 3 hours. Take 1 ml of the supernatant and centrifuge at 3000 rpm for 5 minutes. Measure and record the absorbance at 546 nm. According to the standard curve of phenol red, the excretion of phenol red was calculated.
# Record the time point of oral administration, the time point of intraperitoneal injection of 2.5% phenol red solution, and the time point of tracheal extraction respectively; The absorbance of each group of samples was measured by the microplate reader at 546 nm, Calculate the excretion of phenol red according to the standard curve of phenol red. […]
compound,measurement,setting,value
"Nc1c(Br)cc(Br)cc1CN[C@H]1CC[C@H](O)CC1 [Mucosolvan, ambroxol hydrochloride, reference compound]",Phenol red excretion,"Mucosolvan 30 mg/kg oral, X ± SEM",1.138 ± 0.079 µg/mL
same,Phenol red excretion vs solvent control group,"Mucosultan 30 mg/kg, P<0.05",significantly increased
